One data set deals with P70S6 kinase (T412E) (Homo sapiens (Human), UniProt P23443, T412E). Briefly: P70S6 radiometric assay. Type of data set: biochemical. Here is the method:
P70S6 enzyme is bought from Upstate and used at 2 nM in the assay. […] In the phosphoryl transfer reaction, the ^33P-γ phosphate from ATP is transferred to the serine residue. The reaction mixture is transferred to a phosphocellulose filter plate where the peptide binds and the unused ATP is washed away. After washing, scintillant is added and the incorporated activity measured by scintillation counting.
ATP (10 mM stock) added fresh from concentrated stocks.
Compounds—prepare a dilution curve in DMSO in a polypropylene 96 well plate to 40× final assay concentration (final DMSO 2.5%).
In a polypropylene 96 well plate add in order: • 5 μl compound • 10 μl substrate mix • 10 μl enzyme mix
Controls are “no compound” (DMSO only) and “no enzyme” (use 10 μl of the enzyme mix prior to adding enzyme). Cover with a plate seal (TopSeal A—Packard) or plastic lid from filter plate (moderate radiation barrier). Mix by gentle shaking. Incubate at room temperature for 50 minutes. Stop the reaction by adding 20 μl of 2% orthophosphoric acid.
Pre-wet the wells of a Millipore MAPH NOB plate with 50 μl of 0.5% orthophosphoric acid wash buffer. Filter the liquid through on a Millipore vacuum filtration unit. Transfer the whole of the stopped reaction to the wells. Filter through. Wash twice with 200 μl of 0.5% orthophosphoric acid wash buffer. Vacuum to near dryness. Remove the plate support and allow to the filters to dry further on tissue paper. Snap the plate into an adapter for the Packard TopCount. Add 20 μl of Microscint 20 scintillant, seal with a sheet of Topseal A and count for 30s on the TopCount.

A further data set deals with ROCK-II (h) (Homo sapiens (Human), UniProt O75116). The data set is described as follows: ROCK-II (h) assay, radiometric filter assay. Type of data set: biochemical. The conditions noted are these: read-out: IC50 (anti-ROCK-II activity). As to the method:
(specific activity approx. 500 cpm/pmol, concentration as required). The reaction is initiated by the addition of the MgATP mix. After incubation for 40 minutes at room temperature, the reaction is stopped by the addition of 5 μl of a 3% phosphoric acid solution. 10 μl of the reaction is then spotted onto a P30 filtermat and washed three times for 5 minutes in 75 mM phosphoric acid and once in methanol prior to drying and scintillation counting.
The compound of various examples described above were tested for anti-ROCK-II activity (assay as described above): […]

In a further data set the test system is blood pressure. The conditions noted are these: cited from earlier work.
The conditions of data set [1]: rat, in vivo, po, 30 mg/kg; cited from earlier work.
The mark [2] stands for this setting: enzyme 2 nM, ATP approximately 15 μM, 50 minutes at room temperature, read-out: IC50 (anti-P70S6K activity).
Where [3] appears, read: [γ-33P-ATP], 40 minutes at room temperature.

Each structure is given as a SMILES string. Read-outs that look alike come from different tables or passages of the source.

P70S6 kinase (T412E), sequence (P23443 whole entry T412E): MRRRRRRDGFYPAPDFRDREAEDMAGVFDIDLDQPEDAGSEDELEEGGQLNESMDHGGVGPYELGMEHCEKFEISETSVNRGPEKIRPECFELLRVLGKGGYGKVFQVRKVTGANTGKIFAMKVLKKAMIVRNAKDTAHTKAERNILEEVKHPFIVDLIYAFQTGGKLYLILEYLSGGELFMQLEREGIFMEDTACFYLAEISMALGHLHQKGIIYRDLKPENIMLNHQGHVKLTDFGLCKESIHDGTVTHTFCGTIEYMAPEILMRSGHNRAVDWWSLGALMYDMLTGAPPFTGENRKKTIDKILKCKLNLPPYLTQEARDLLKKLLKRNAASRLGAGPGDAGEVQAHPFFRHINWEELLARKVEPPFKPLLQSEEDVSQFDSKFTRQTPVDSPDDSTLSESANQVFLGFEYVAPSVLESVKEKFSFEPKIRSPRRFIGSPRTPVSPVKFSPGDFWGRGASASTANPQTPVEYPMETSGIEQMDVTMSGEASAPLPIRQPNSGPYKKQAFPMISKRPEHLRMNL
ROCK-II (h), sequence (O75116 whole entry): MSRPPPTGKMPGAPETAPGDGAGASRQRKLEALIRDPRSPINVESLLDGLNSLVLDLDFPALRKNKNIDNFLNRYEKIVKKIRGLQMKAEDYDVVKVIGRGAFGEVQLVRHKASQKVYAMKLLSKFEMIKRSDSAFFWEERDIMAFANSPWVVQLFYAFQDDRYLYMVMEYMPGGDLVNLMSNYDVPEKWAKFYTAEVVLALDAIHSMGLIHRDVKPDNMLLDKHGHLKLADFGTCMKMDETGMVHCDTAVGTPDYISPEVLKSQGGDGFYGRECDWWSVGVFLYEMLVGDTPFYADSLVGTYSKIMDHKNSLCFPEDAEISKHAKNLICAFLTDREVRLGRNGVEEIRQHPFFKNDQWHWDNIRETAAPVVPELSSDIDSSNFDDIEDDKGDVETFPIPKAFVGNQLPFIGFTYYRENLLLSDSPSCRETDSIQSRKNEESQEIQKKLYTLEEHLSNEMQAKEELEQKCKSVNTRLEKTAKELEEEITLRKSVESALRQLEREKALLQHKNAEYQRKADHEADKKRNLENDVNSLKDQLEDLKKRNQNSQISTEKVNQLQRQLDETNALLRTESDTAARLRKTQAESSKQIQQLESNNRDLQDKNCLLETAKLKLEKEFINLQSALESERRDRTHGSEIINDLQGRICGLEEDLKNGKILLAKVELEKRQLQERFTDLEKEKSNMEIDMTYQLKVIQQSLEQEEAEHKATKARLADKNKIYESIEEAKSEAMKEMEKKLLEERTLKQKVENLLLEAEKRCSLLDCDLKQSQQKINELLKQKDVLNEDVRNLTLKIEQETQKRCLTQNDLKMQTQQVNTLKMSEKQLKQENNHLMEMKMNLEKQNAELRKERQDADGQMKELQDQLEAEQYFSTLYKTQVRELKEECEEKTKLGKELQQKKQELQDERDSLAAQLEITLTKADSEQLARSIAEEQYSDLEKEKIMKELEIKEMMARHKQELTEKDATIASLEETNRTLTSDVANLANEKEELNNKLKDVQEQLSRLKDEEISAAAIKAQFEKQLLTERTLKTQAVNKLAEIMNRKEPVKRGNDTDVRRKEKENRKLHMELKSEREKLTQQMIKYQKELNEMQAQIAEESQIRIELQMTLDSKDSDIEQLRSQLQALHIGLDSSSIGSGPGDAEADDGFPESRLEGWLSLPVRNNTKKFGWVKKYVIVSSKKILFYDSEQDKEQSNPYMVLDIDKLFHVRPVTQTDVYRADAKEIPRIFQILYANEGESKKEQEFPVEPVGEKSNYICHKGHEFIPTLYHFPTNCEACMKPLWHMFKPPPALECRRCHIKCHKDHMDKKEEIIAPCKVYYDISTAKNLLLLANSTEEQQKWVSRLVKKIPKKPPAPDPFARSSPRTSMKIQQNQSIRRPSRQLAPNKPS

With `NC1CCN(c2ncnc3[nH]c(=O)[nH]c23)CC1` [Example 4, 6-(4-Aminopiperidin-1-yl)-7,9-dihydropurin-8-one], the results for the IC50 at P70S6 kinase (T412E) (setting [2]) and at ROCK-II (h) were 3000 nM and more than 1000 nM, respectively.
Turning to `NC1(Cc2ccc(Cl)cc2)CCN(c2ncnc3[nH]ccc23)CC1` [Example 17, 4-(4-Chlorobenzyl)-1-(7H-pyrrolo[2,3-d]pyrimidin-4-yl)piperidin-4-ylamine], the values for the IC50 on P70S6 kinase (T412E) (setting [2]) and at ROCK-II (h) (setting [3]) were 94 nM and less than 1000 nM, respectively.
Take `NC1(c2ccc(Cl)cc2)CCN(c2ncnc3[nH]ccc23)CC1` [Example 25, 4-(4-Chlorophenyl)-1-(7H-pyrrolo[2,3-d]pyrimidin-4-yl)piperidin-4-ylamine]: at P70S6 kinase (T412E), the IC50 (usually the concentration that inhibits the measured activity by half) amounted to 13 nM.
As to `NCC1(c2ccc(OC(F)(F)F)cc2)CCN(c2ncnc3[nH]ccc23)CC1` [Example 30], the IC50 at P70S6 kinase (T412E) (setting [2]) is 7 nM.
As for `NC1(Cc2ccc(Cl)cc2)CCN(c2ccnc3[nH]ccc23)CC1` [Example 54, 4-(4-Chlorobenzyl)-1-(1H-pyrrolo[2,3-b]pyridin-4-yl)-piperidin-4-ylamine], the results for the IC50 on P70S6 kinase (T412E) (setting [2]) and on ROCK-II (h) (setting [3]) were 30 nM and less than 10 nM, respectively.
For `NC1(Cc2ccccc2Cl)CCN(c2ncnc3[nH]ccc23)CC1` [Example 55, 4-(2-Chlorobenzyl)-1-(7H-pyrrolo[2,3-d]pyrimidin-4-yl)piperidin-4-ylamine], the half-inhibitory concentration (IC50) at ROCK-II (h) (setting [3]) is more than 1000 nM.
On to `NC1(Cc2ccc(Cl)cc2Cl)CCN(c2ncnc3[nH]ccc23)CC1` [Example 59, 4-(2,4-Dichlorobenzyl)-1-(7H-pyrrolo[2,3-d]pyrimidin-4-yl)piperidin-4-ylamine], for which the IC50 was 59 nM at P70S6 kinase (T412E) (setting [2]) and less than 30 nM at ROCK-II (h).
`C[C@@H](N)[C@H]1CC[C@H](C(=O)Nc2ccncc2)CC1` [Example Y-27632]: the results for the “effect on blood pressure” value with blood pressure (hypertensive rats) and with blood pressure (normal rats) were “reduces blood pressure” and “does not affect blood pressure”, respectively. Also, the toxicity in rats result in data set [1] was “not toxic”.
